In paper PMC7789826 (Journal of Molecular Structure, 2021) one finds EC50 data, which are given here for 2 molecules.

This test deals with voltage-gated potassium channel Kv1.3 (Homo sapiens, UniProt P22001). In words: whole-cell patch clamp, voltage ramp, endogenous Kv1.[…] current in Jurkat T cells. The format is cell-based.
Sequence of voltage-gated potassium channel Kv1.3 (P22001 whole entry): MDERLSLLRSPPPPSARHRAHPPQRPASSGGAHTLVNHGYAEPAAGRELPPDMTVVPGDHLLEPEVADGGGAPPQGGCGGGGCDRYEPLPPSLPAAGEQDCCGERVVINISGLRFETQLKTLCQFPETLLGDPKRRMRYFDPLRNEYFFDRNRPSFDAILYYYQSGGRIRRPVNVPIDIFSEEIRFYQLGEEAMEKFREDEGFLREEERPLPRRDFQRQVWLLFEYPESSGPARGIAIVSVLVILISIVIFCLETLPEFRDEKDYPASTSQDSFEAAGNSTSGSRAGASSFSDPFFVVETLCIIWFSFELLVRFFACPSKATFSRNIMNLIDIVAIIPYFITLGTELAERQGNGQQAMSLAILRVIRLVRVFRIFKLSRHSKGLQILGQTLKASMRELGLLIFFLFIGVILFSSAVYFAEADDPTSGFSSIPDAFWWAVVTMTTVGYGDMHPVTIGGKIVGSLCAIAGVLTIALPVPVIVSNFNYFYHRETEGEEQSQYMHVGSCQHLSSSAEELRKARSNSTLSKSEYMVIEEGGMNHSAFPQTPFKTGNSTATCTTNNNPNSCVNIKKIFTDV

What is called EC50 is the concentration giving half of the maximal effect. Turning to `CCC(C)(C)C(=O)O[C@H]1C[C@@H](C)C=C2C=C[C@H](C)[C@H](CC[C@@H]3C[C@@H](O)CC(=O)O3)[C@H]21` [simvastatin], the EC50 turned out to be 4.85 µM. In other words, the single-digit micromolar range. In the case of `CC[C@H](C)C(=O)O[C@H]1CCC=C2C=C[C@H](C)[C@H](CC[C@@H]3C[C@@H](O)CC(=O)O3)[C@H]21` [mevastatin] it was 6.04 µM.
